Assays:
[1] = biological target: T1, MlpGGDPS (Melampsora laricis-populina, UniProt A0A858E7G0); assay: radiochemical IDS assay, TLC; assay type: biochemical; conditions: MOPS pH 7.0, 10 mM MgCl2, 30 °C; co-substrate [1-14C]-IDP; product GGDP
T1 construct: gene GGDPS; full-length cDNA from infected Populus nigra leaves in pET-32a, N-terminal His-tag, E. coli BL21(DE3) pLysS
T1 sequence (A0A858E7G0 1-364): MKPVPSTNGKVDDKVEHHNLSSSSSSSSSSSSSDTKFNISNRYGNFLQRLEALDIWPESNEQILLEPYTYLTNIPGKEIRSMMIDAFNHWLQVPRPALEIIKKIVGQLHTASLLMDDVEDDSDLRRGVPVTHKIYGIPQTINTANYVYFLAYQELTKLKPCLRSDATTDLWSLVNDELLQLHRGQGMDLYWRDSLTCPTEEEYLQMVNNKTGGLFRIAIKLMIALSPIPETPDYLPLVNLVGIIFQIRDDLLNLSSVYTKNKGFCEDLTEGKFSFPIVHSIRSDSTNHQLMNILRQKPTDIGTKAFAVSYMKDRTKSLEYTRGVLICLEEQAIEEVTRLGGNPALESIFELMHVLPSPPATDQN

[2] = biological target: T2, MliILTPS1 (Melampsora lini, UniProt A0A858E7J4); assay: in vitro terpene synthase assay, SPME GC-MS; assay type: biochemical; conditions: room temperature, 60 min
T2 construct: gene ILTPS1; full-length synthesized cDNA in pET-32a, N-terminal His-tag, E. coli BL21(DE3) pLysS
T2 sequence (A0A858E7J4 1-329): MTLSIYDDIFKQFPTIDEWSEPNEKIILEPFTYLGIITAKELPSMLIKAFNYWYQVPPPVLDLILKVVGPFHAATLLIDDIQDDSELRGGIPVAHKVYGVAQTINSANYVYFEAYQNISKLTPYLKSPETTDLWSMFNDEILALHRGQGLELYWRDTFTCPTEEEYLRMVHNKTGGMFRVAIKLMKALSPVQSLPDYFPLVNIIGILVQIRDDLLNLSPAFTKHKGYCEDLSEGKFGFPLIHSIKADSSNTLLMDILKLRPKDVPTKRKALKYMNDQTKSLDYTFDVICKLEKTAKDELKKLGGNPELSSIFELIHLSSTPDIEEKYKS

[3] = biological target: T3, MliGGDPS (Melampsora lini, UniProt A0A858E6N7); assay: radiochemical IDS assay, TLC; assay type: biochemical; conditions: MOPS pH 7.0, 10 mM MgCl2, 30 °C; co-substrate [1-14C]-IDP; product GGDP
T3 construct: gene GGDPS; full-length synthesized cDNA in pET-32a, N-terminal His-tag, E. coli BL21(DE3) pLysS
T3 sequence (A0A858E6N7 1-365): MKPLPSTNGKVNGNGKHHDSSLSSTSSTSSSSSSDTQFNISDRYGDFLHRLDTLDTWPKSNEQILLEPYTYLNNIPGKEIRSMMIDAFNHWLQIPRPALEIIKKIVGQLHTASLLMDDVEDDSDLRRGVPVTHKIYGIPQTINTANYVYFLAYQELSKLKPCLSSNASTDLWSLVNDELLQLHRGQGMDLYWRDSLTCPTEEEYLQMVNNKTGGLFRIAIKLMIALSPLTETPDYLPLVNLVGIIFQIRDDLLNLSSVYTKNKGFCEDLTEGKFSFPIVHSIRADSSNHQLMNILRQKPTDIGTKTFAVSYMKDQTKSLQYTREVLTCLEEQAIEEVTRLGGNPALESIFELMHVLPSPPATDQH

[4] = biological target: T4, MlpILTPS1 (Melampsora laricis-populina, UniProt A0A858E4Y8); assay: in vitro terpene synthase assay, SPME GC-MS; assay type: biochemical; conditions: room temperature, 60 min
T4 construct: gene ILTPS1; full-length cDNA from infected Populus nigra leaves in pET-32a, N-terminal His-tag, E. coli BL21(DE3) pLysS
T4 sequence (A0A858E4Y8 1-324): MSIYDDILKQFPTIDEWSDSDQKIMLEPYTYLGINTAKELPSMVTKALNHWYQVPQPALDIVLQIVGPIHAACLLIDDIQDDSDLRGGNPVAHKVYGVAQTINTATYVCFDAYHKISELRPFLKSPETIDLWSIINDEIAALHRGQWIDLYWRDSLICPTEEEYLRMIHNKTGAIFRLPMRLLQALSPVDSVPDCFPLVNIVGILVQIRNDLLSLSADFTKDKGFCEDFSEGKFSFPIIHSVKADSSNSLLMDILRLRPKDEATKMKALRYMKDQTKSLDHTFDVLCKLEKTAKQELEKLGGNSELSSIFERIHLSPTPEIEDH

[5] = biological target: T5, MlpILTPS2 (Melampsora laricis-populina, UniProt A0A858E4Y6); assay: in vitro terpene synthase assay, SPME GC-MS; assay type: biochemical; conditions: room temperature, 60 min
T5 construct: gene ILTPS2; full-length cDNA from infected Populus nigra leaves in pET-32a, N-terminal His-tag, E. coli BL21(DE3) pLysS
T5 sequence (A0A858E4Y6 1-316): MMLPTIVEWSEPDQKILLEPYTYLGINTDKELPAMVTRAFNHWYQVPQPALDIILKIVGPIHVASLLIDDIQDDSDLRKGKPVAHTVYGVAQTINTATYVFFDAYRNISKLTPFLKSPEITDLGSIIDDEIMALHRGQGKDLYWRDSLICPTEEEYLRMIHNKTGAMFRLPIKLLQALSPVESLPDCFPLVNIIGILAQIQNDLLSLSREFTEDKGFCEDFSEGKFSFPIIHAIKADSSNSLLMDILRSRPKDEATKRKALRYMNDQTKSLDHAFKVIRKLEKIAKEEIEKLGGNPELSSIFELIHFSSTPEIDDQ

[6] = substrate: CC(C)=CCC/C(C)=C/CC/C(C)=C/CO[P@@](=O)(O)OP(=O)(O)O; assay: radiochemical terpene synthase assay, hexane extraction; assay type: biochemical, Melampsora lini; conditions: MOPSO pH 7.0, 10 mM MgCl2, 0.05 mM MnCl2, room temperature, labelled compound
Procedure: radiochemical terpene synthase assay, hexane extraction on MliILTPS3 | the apparent Km values of MliILTPS2 and MliILTPS3 using FDP as substrate were determined

[7] = substrate: CC(C)=CCC/C(C)=C/CC/C(C)=C/CO[P@@](=O)(O)OP(=O)(O)O; assay: as above; assay type: biochemical, Melampsora lini; conditions: MOPSO pH 7.0, 10 mM MgCl2, 0.05 mM MnCl2, room temperature, labelled compound; remark: listed apart in the source
Procedure: radiochemical terpene synthase assay, hexane extraction on MliILTPS2 | the apparent Km values of MliILTPS2 and MliILTPS3 using FDP as substrate were determined

CC(C)=CCC/C(C)=C/CC/C(C)=C/COP(=O)(O)OP(=O)(O)O [FDP]
radiochemical IDS assay, TLC [1]: MlpGGDPS catalyzed the formation of GGDP using either DMADP, GDP, or FDP
in vitro terpene synthase assay, SPME GC-MS ([2]; product (E)-nerolidol): both MliILTPS1 and MliILTPS3 converted FDP to (E)-nerolidol
radiochemical IDS assay, TLC [3]: MliGGDPS was active with DMADP, GDP, and FDP to produce GGDP
in vitro terpene synthase assay, SPME GC-MS ([4]; product (E,E)-alpha-farnesene): using FDP as substrate, MlpILTPS1 produced (E,E)-α-farnesene
in vitro terpene synthase assay, SPME GC-MS ([5]; product (E)-nerolidol): MlpILTPS2 catalyzed the formation of (E)-nerolidol

CC(C)=CCC/C(C)=C/COP(=O)(O)OP(=O)(O)O [GDP]
in vitro terpene synthase assay, SPME GC-MS ([2]; product linalool): both MliILTPS1 and MliILTPS3 converted GDP to linalool
in vitro terpene synthase assay, SPME GC-MS ([4]; products (E)-beta-ocimene (major), linalool (minor)): When GDP was provided as a substrate, MlpILTPS1 produced (E)-β-ocimene as a major product
in vitro terpene synthase assay, SPME GC-MS ([5]; product linalool): In contrast, MlpILTPS2 produced only linalool

B1: MliILTPS3 (Melampsora lini) (protein)
chain: MSIYDDIFKQFPMIDEWSDSDEKILVEPYTYLGINTAKELPSMVTKAFNHWYQVPQPALDIILQIIGPIHAASLLLDDIQDDSDLRGGNPVAHKVYGVAQTINTATYVCFDAYHKVSQLTPFLKSPETTDLWSIINDEIAALHRGQGIELYWRDSLMCPTEEEYLRMIHNKTGAIFRLPIKLLQALSSVDSPPDCFPLLNIVGILFQIQNDISSLSPDFTKDKGFCEDFSEGKFSFPIIHSVKADSSNSLLMDILRLRPKDEATKRKALRFMKDQTKSLDHTFHVLCKLKKTAQEELEKLGGNSELSSILERIQVSPTPEIEDR
notes: full-length synthesized cDNA in pET-32a, N-terminal His-tag, E. coli BL21(DE3) pLysS
Km [6]: 1.6 ± 0.2 µM
kcat [6]: 0.05 ± 0.004 s⁻¹

B2: MliILTPS2 (Melampsora lini) (protein)
chain: MSIYDDIFKQFPTIDEWSESNEKIMLEPYTHLGINTAKELPSMVTKAFNHWYQVPQPALDIILQIVGPIHAACLLIDDIQDDSDLRGGNPVAHKVYGVAQTINTATYVCFDAYHKISKLTPFSKSPETTDLWSIINDEIAALHRGQWIDLYWRDSLICPTEEEYLRMIHNKTGAIFRLPIKLLQALSPVDSPPDCFPLVNVVGILVQIRNDLLSLSPDFTKDKGFCEDFSEGKFSFPIIHSVKADSSNSLLIDILRLRPKDEPTKRKALRYMKDQTKSLDHTFDVLCKLEKTAKEELEKLGGNSELSSILELIQVSPIPEIADR
notes: as for B1
Km [7]: 1.9 ± 0.3 µM
kcat [7]: 0.01 ± 0.001 s⁻¹

From article PMC7484799, “Evolution of isoprenyl diphosphate synthase-like terpene synthases in fungi” (Scientific Reports, 2020)
